Assay [1] relates to ceramide channels in the mitochondrial outer membrane (MOM). Description: Adenylate kinase release assay in isolated rat liver mitochondria. It is filed as biochemical. As to the method:
The preparation yielded a mitochondrial suspension containing 10 mg of protein per mL. […] The mitochondria were then pelleted at 14,000 g for 5 min at 4° C. and the supernatant was kept on ice until assayed. […] The enzymes were added to the rest of the reaction mixture 1 min before the addition of the mitochondrial supernatant to allow a trace of ATP to be consumed. The activity of adenylate kinase was detected as an increase in absorbance at 340 nm. Since the activity of the kinase decays with time, even on ice, experiments were performed in sets and the activity of the first supernatant was assayed again at the end of the set. The values were fitted to a first order decay and all values within the set were corrected for the decay of the activity, based on the time delay before assay.
To determine the effect of sphingosine pretreatment on ceramide permeabilization of the mitochondrial outer membrane, mitochondria were incubated at room temperature in the presence of varying concentrations of sphingosine for […] before addition of ceramide and incubation for 10 min. Untreated mitochondria and mitochondria hypotonically lysed (20 μl into 1.2 ml water) served as negative and positive controls, respectively.
Experiments with C16-ceramide were performed in a similar way except as follows. The mitochondria were suspended in the above medium except that the 1 mM Tris buffer was replaced by 5 mM HEPES. To 1.0 mL of this medium at room temperature (RT) was added 17 μL of mitochondrial suspension that had been kept on ice at a concentration of 4 mg/mL. The final mitochondrial protein concentration during the experiment was 80 μg/mL. In the case of shocked mitochondria, the 1.0 mL of medium was replaced by water. Sphingosine was added, where appropriate, from a 0.25 mg/mL solution in DMSO. Typically 4-7 incubations were run in parallel. All samples were incubated for 5 min at RT. Then some samples received 0.4 mL of fatty acid depleted bovine serum albumin (BSA), 25 mg/mL, followed immediately by 20 μL of C16-ceramide dissolved in isopropanol at 2 mg/mL. After a 10-min incubation at RT, 10 μL of 4 mM PMSF was added followed by centrifugation. In these experiments 0.3 mL of mitochondrial supernatant was added to the adenylate kinase reaction mixture.

For assay [2], the system named is ceramide channels. Description: Screening for influence on ceramide channel formation in liposomes or planar membranes. It is filed as biochemical. The source says: In one embodiment, such methods comprise screening compounds for their ability to influence the formation of ceramide channels in liposomes or planar membranes. […] Such liposomes or planar membranes can be produced using any of a variety of lipids. Preferably, however, the constituents of the liposomes or planar membranes will be selected to mimic those of the MOM, or to have relevance to such membranes (see, Weissig, V. et al. (2006) “LIPOSOMES AND LIPOSOME-LIKE VESICLES FOR DRUG AND DNA DELIVERY TO MITOCHONDRIA,” J. Liposome Res. 16(3):249-264; Torchilin, V. P. (2006) “RECENT APPROACHES TO INTRACELLULAR DELIVERY OF DRUGS AND DNA AND ORGANELLE TARGETING,” Annu. Rev. Biomed. Eng. 8:343-375; Elrick, M. J. et al. (2006) “SPHINGOSINE, A PRODUCT OF CERAMIDE HYDROLYSIS, INFLUENCES THE FORMATION OF CERAMIDE CHANNELS,” Biophys. J. 1; 91(5):1749-1756; Bathori, G. et al. (2006) “CA2+-DEPENDENT CONTROL OF THE PERMEABILITY PROPERTIES OF THE MITOCHONDRIAL OUTER MEMBRANE AND VOLTAGE-DEPENDENT ANION-SELECTIVE CHANNEL (VDAC),” J. Biol. Chem. 281(25):17347-17358; Stiban, J. et al. (2006) “DIHYDROCERAMIDE HINDERS CERAMIDE CHANNEL FORMATION: IMPLICATIONS ON APOPIOSIS,” Apoptosis 11(5):773-780; Stover, T. C. et al. (2005) “SYSTEMIC DELIVERY OF LIPOSOMAL SHORT-CHAIN CERAMIDE LIMITS SOLID TUMOR GROWTH IN MURINE MODELS OF BREAST ADENOCARCINOMA,” Clin. Cancer Res. 11(9):3465-3474).

Setting [3] is: observed in isolated mitochondria and liposome permeability assay.

As for `CCCCCCCCCCCCC/C=C/[C@@H](O)[C@@H](N)CO` [sphingosine], the “permeabilization of the MOM to adenylate kinase after removal of excess compound with BSA” value in assay [1] (2.4 μg/mL for 5 min, then fatty acid depleted BSA, no ceramide added) is “release of adenylate kinase is evident”. In addition, the “effect of preincubation on C16-ceramide permeabilization of the MOM and adenylate kinase release” value in assay [1] (5 min preincubation, C16-ceramide 40 μg/mL, 10 min, low concentration potentiates, higher inhibits) is given as “biphasic relationship”. For the same compound, the “sphingosine exposure giving essentially total inhibition of ceramide-dependent adenylate kinase release” value in assay [1] (5 min pretreatment, then C2-ceramide 29 μg/mL for 10 min at room temperature, depends on batch of mitochondria) is 0.3 to 0.6 µg/mL. Further, the “release of adenylate kinase by compound alone” value in assay [1] (no ceramide, concentration range up to 6 μg/mL) was “did not induce the release of adenylate kinase”. For the same compound, in assay [1] (setting [3]), the “higher levels that strongly inhibited ceramide channel formation” value is 5 to 10 µM and the “low levels that stimulated ceramide induced permeabilization of the mitochondrial outer membrane to proteins” value lay in the range of 1 to 2 µM. Besides, the “concentration at which very potent inhibitor of ceramide channels” value in assay [2] came out at 5 µM.

(Values after patent US7897401B2, “Control of apoptosis by controlling the propensity of ceramide channel formation” (University of Maryland, College Park, priority 2005, dated 2011).)
